{"source": "patent US8206732B2", "about": "“Pyrithione biocides enhanced by silver, copper, or zinc ions” (Arch Chemicals, Inc., priority 1999, dated 2012)", "format_in_all_cases": "cell-based", "key": {"[1]": {"system": "Staphylococcus aureus 27217", "assay": "Checkerboard MIC test, pyrithiones with silver salts", "conditions": "silver ion alone or in the inhibitory mixture; TSB pH 7.3, 35° C., 1 to 2 days"}, "[2]": {"system": "Pseudomonas aeruginosa NCIMB 6749", "assay": "Zone of inhibition test (paper disc on TSA)", "conditions": "6.5 mm discs; 0.135% pyrithione, 0.1% ZnCl2 or both; 28° C., 24 hr"}, "[3]": {"system": "Pseudomonas aeruginosa NCIMB 6749", "assay": "Checkerboard MIC test, pyrithiones with zinc salts", "conditions": "pyrithione alone or pyrithione concentration in the inhibitory mixture; TSB, 28 C, 3 days"}, "[4]": {"system": "Fusarium sp.", "assay": "Checkerboard MIC test, pyrithiones with zinc salts", "conditions": "pyrithione alone or pyrithione concentration in the inhibitory mixture; TSB, 28 C, 5 days", "description": "Mixtures of pyrithione and zinc or silver in various proportions were tested for relative efficacy by a modification of the procedure described by Dougherty, et al.\nEqual volumes of bacteria (10^6 cells/ml) or fungi (10^5 spores/ml) were added to each microtiter plate well. The plates were incubated at 28 C for 3 days (bacteria) or 5 days (fungi), and the minimum inhibitory concentration (MIC) of biocide was determined. The Fractional Inhibitory Concentration (FIC=concentration of biocide in an inhibitory mixture divided by the MIC of the pure biocide) was determined, and the FIC Index (sum of the two FIC's) was calculated. The type of interaction was categorized according to the magnitude of the Index: Synergistic (<1), Additive (1), or Antagonistic (>1)."}, "[5]": {"system": "Staphylococcus aureus ATCC 27217", "assay": "Zone of inhibition test (paper disc on TSA)", "conditions": "6.5 mm discs; 0.135% pyrithione, 0.1% ZnCl2 or both; 28° C., 24 hr"}, "[6]": {"system": "Escherichia coli ATCC 10536", "assay": "Zone of inhibition test (paper disc on TSA)", "conditions": "6.5 mm discs; 0.135% pyrithione, 0.1% ZnCl2 or both; 28° C., 24 hr"}, "[7]": {"system": "Staphylococcus aureus ATCC 27217", "assay": "Checkerboard MIC test, pyrithiones with zinc salts", "conditions": "pyrithione alone or pyrithione concentration in the inhibitory mixture; TSB, 28 C, 3 days"}, "[8]": {"system": "Pseudomonas aeruginosa ATCC 9027", "assay": "MIC in Tryptic Soy Broth, microtiter (Example 1)", "conditions": "TSB, 28° C., incubated 5-6 days; single agent (NaPT without Cu)"}, "[9]": {"system": "Aspergillus niger ATCC 6275", "assay": "MIC in Tryptic Soy Broth, microtiter (Example 1)"}, "[10]": {"system": "two cultures of fungi", "assay": "Challenge test in soluble oil metalworking fluid, fungi (Example 6)", "conditions": "soluble oil MWF, 10 ppm Zn, 100 ppm NaPT, 50 ppm ZPT or 50 ppm CuPT as in column head"}, "[11]": {"system": "seven cultures of bacteria", "assay": "Challenge test in soluble oil metalworking fluid, bacteria (Example 6)", "conditions": "soluble oil MWF, 10 ppm Zn, 100 ppm NaPT, 50 ppm ZPT or 50 ppm CuPT as in column head"}}, "data": [{"smiles": "[Ag+].[Ag+].[O-2]", "note": "[Ag2O]", "values": [{"measurement": "MIC Ag^+1 Ion", "setting": "[1]", "result": 29.8, "unit": "ppm"}]}, {"smiles": "O.O.O.O=S(=O)([O-])[O-].[Mg+2].[O-][n+]1ccccc1SSc1cccc[n+]1[O-]", "note": "[MDS, MgSO4.3H2O adduct of 2,2′-dithiopyridine-1,1′-dioxide]", "values": [{"measurement": "Zone of Inhibition", "setting": "[2]", "result": 0, "unit": "mm"}, {"measurement": "MIC Pyrithione", "setting": "[3]", "result": 1024, "unit": "ppm"}, {"measurement": "MIC Pyrithione", "setting": "[4]", "result": ">1843", "unit": "ppm"}, {"measurement": "Zone of Inhibition", "setting": "[5]", "result": 28, "unit": "mm"}, {"measurement": "Zone of Inhibition", "setting": "[6]", "result": 31, "unit": "mm"}, {"measurement": "MIC Pyrithione", "setting": "[7]", "result": 8, "unit": "ppm"}]}, {"smiles": "On1ccccc1=S.On1ccccc1=S.[Cu]", "note": "[CuPT2, copper pyrithione]", "values": [{"measurement": "MIC", "setting": "[8]", "result": ">1024", "unit": "ppm"}, {"measurement": "molar MIC", "setting": "[9]; Aspergillus niger", "result": 51, "unit": "µM"}, {"measurement": "MIC", "setting": "[9]; TSB, 28° C., incubated 7-8 days, single agent (NaPT without Cu)", "result": 16, "unit": "ppm"}, {"measurement": "FUNGI (cfu/ml)", "setting": "[10]; DAY 0", "result": "2.4 × 10^5 cfu/ml"}, {"measurement": "FUNGI (cfu/ml)", "setting": "[10]; DAY 6", "result": 1000, "unit": "cfu/ml"}, {"measurement": "FUNGI (cfu/ml)", "setting": "[10]; DAY 13", "result": 680, "unit": "cfu/ml"}, {"measurement": "FUNGI (cfu/ml)", "setting": "[10]; DAY 20", "result": 370, "unit": "cfu/ml"}, {"measurement": "BACTERIA (cfu/ml)", "setting": "[11]; DAY 0", "result": "3.2 × 10^7 cfu/ml"}, {"measurement": "BACTERIA (cfu/ml)", "setting": "[11]; DAY 6", "result": "1.5 × 10^7 cfu/ml"}, {"measurement": "BACTERIA (cfu/ml)", "setting": "[11]; DAY 13", "result": "9.7 × 10^6 cfu/ml"}, {"measurement": "BACTERIA (cfu/ml)", "setting": "[11]; DAY 20", "result": "1.9 × 10^6 cfu/ml"}]}, {"smiles": "[Cl-].[Cl-].[Zn+2]", "note": "[ZnCl2]", "values": [{"measurement": "Zone of Inhibition", "setting": "[2]", "result": 0, "unit": "mm"}, {"measurement": "Zone of Inhibition", "setting": "[5]", "result": 0, "unit": "mm"}, {"measurement": "Zone of Inhibition", "setting": "[6]", "result": 0, "unit": "mm"}]}]}
